Like-named read-outs stand apart in the source and are kept apart here.
Columns and labels:
Format in all cases: cell-based
[1] = system: HCT-116 colorectal cancer cell line; assay: CCK-8 proliferation inhibition; conditions: 72 hours, CCK-8; for inhibition at 30 µM: HCT-116, 72 h
Outline: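 HCT-116 cells, seeded at 2000 cells/well in McCoy's 5A with 10% newborn bovine serum, were cultured overnight at 37° C., 5% CO2, then exposed to compound dilutions in medium for 72 hours. Viability was read with 1:10 diluted CCK-8; controls received 1‰ DMSO.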

[2] = system: Enterococcus faecalis (EFA); assay: MIC, two-fold agar dilution (CLSI), clinical isolates
Outline: (§1)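 Following the American Clinical and Laboratory Standards Institute procedure, agar two-fold dilution served to determine minimum inhibitory concentrations.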

[3] = system: methicillin-sensitive Staphylococcus epidermidis (MSSE); assay: as above
Outline: as §1

[4] = system: Enterococcus faecium (EFM); assay: as above
Outline: as §1

[5] = system: Streptococcus pneoumoniae (SPN); assay: as above
Outline: as §1

[6] = system: methicillin-resistant Staphylococcus aureus (MRSA); assay: as above
Outline: as §1

[7] = system: Moraxella catarrhalis (BCA); assay: as above; conditions: for Anti-bacterial activity (MIC), strain BCA 14-10: clinical isolate BCA 14-10
Outline: as §1

[8] = system: methicillin-resistant Staphylococcus epidermidis (MRSE); assay: as above
Outline: as §1

[9] = system: methicillin-sensitive Staphylococcus aureus (MSSA); assay: as above
Outline: as §1

[10] = system: Escherichia coli (including ESBLs, non-ESBLs); assay: as above
Outline: as §1

[11] = system: A549 lung cancer cell line; assay: CCK-8 proliferation inhibition; conditions: Homo sapiens; for inhibition at 30 µM: A549, 72 h, concentration of 30 μM
From the text: (§2) 2. The present invention adopts the CCK-8 method to determine the proliferation inhibition effect of the spiro three-membered ring, spiro five-membered ring peptide deformylase inhibitor as described in Examples 1-80 against colorectal cancer cells, lung cancer cells, gastric cancer cells, liver cancer cells, and the like. […] The compound having the best activity synthesized in Example 64 was further tested for its inhibitory activity against other tumor cells including T cell leukemia, acute myeloid leukemia, cervical cancer, breast cancer, prostate cancer and osteosarcoma, and the like (see Table 7).
(§3) (1) HCT-116 colorectal cancer cell line, A549 lung cancer cell line, MGC-803 gastric cancer cell line, BEL-7402 liver cancer cell line, Jurkat T cell leukemia cell line, HL60 acute myeloid leukemia cell line, Hela cervical cancer cell line, MCF-7 breast cancer cell line, PC3 prostate cancer cell line and SAOS-2 osteosarcoma cell line were made into single cell suspension, 180 μL of which was inoculated into 96-well culture plate, which was cultured overnight in CO2 incubator (37° C., 5% CO2, 95% air).
(§4) (2) Each of the spiro three-membered ring, spiro five membered ring peptide deformylase inhibitors was dissolved in DMSO, and was further formulated into drug solution with required different final concentration using corresponding cell culture medium. The drug solutions were added to the above cells respectively (20 μL/well), with the control group added with 1‰ DMSO, and cultured in a CO2 incubator for 72 hours.
(§5) (3) After incubation for 72 hours, the culture solution was decanted, and 100 μL of 1:10 diluted CCK-8 solution was added.
(§6) Wherein, in step (1), the concentration of the single cell suspension was 2000 cells/well.
(§7) Wherein, in step (2), HCT-116 cells were cultured in McCoy's 5A medium (containing 10% newborn bovine serum, 1% double antibody); A549 and PC3 cells were cultured in F12 medium (containing 10% newborn bovine serum, 1% double antibody); MGC-803, BEL-7402, SAOS-2, Jurkat and HL60 cells were cultured in 1640 medium (containing 10% newborn bovine serum, 1% double antibody); and MCF-7 and Hela cells were cultured in DMEM high glucose medium (containing 10% newborn bovine serum, 1% double antibody).

[12] = system: BEL-7402 liver cancer cell line; assay: CCK-8 proliferation inhibition
From the text: as §2, §3, §4, §5, §6, §7

[13] = system: MGC-803 gastric cancer cell line; assay: CCK-8 proliferation inhibition
From the text: as §2, §3, §4, §5, §6, §7

[14] = concentration of 30 μM, 72 hours, 30 µM

Cc1cnc(NC(=O)[C@@H]2CC3(CC3)CN2C(=O)[C@H](CC2CCCC2)CN(O)C=O)s1 [Example 29, (S)-5-((R)-3-cyclopentylmethyl-2-((N-hydroxyformamido)methyl)propionyl)-N-(5-methylthiazol-2-yl)-5-spiro[2.4]heptane-6-carboxamide]
32 µg/mL: MIC (anti-bacterial activity) ([10]; strain ECO+ 15-2) | MIC (anti-bacterial activity) ([10]; strain ECO− 15-3)
79%: Inhibition of proliferation, Liver cancer BEL-7402 [12, 14]
94%: HCT116 inhibition rate/% ([1]; concentration of 30 μM, 30 µM)
13.6 µM: IC50 ([11]; A549, 72 hours)
0.125 µg/mL: MIC (anti-bacterial activity) ([3]; strain MSSE 15-3) | MIC (anti-bacterial activity) ([3]; strain MSSE 15-4) | MIC (anti-bacterial activity) ([3]; strain MSSE 15-5) | MIC (anti-bacterial activity) ([6]; strain MRSA 15-1) | MIC (anti-bacterial activity) ([6]; strain MRSA 15-2) | MIC (anti-bacterial activity) ([6]; strain MRSA 15-4) | MIC (anti-bacterial activity) ([7]; strain BCA 14-5) | MIC (anti-bacterial activity) ([7]; strain BCA 14-7) | MIC (anti-bacterial activity) ([8]; strain MRSE 15-2) | MIC (anti-bacterial activity) ([8]; strain MRSE 15-3) | MIC (anti-bacterial activity) ([8]; strain MRSE 15-7) | MIC (anti-bacterial activity) ([9]; strain MSSA 15-3) | MIC (anti-bacterial activity) ([9]; strain MSSA 15-4) | MIC (anti-bacterial activity) ([9]; strain MSSA 15-5) | MIC (anti-bacterial activity) ([9]; strain MSSA 15-6)
7.57 µM: IC50 ([12]; Homo sapiens, Bel-7402, 72 hours)
78%: Inhibition of proliferation, Gastric cancer MGC-803 [13, 14]
4 µg/mL: MIC (anti-bacterial activity) ([2]; strain EFA 15-1) | MIC (anti-bacterial activity) ([2]; strain EFA 15-2) | MIC (anti-bacterial activity) ([2]; strain EFA 15-4) | MIC (anti-bacterial activity) ([2]; strain EFA 15-5) | MIC (anti-bacterial activity) ([2]; strain EFA 15-6) | MIC (anti-bacterial activity) ([5]; strain SPN 16-4)
1 µg/mL: MIC (anti-bacterial activity) ([2]; strain EFA 15-3) | MIC (anti-bacterial activity) ([4]; strain EFM 15-1) | MIC (anti-bacterial activity) ([4]; strain EFM 15-2) | MIC (anti-bacterial activity) ([4]; strain EFM 15-4) | MIC (anti-bacterial activity) ([4]; strain EFM 15-5) | MIC (anti-bacterial activity) ([4]; strain EFM 15-6)
16 µg/mL: MIC (anti-bacterial activity) ([10]; strain ECO+ 15-1) | MIC (anti-bacterial activity) ([10]; strain ECO+ 15-3) | MIC (anti-bacterial activity) ([10]; strain ECO+ 15-4) | MIC (anti-bacterial activity) ([10]; strain ECO− 15-1) | MIC (anti-bacterial activity) ([10]; strain ECO− 15-2) | MIC (anti-bacterial activity) ([10]; strain ECO− 15-4)
8.96 µM: IC50 ([1]; Homo sapiens, HCT-116)
2 µg/mL: MIC (anti-bacterial activity) ([2]; strain EFA 15-9)
0.25 µg/mL: Anti-bacterial activity (MIC), strain BCA 14-10 [7] | MIC (anti-bacterial activity) ([7]; strain BCA 14-6) | MIC (anti-bacterial activity) ([7]; strain BCA 14-8)
36%: inhibition at 30 µM [11]
7.84 µM: IC50 ([13]; Homo sapiens, MGC-803, 72 hours)
0.5 µg/mL: MIC (anti-bacterial activity) ([4]; strain EFM 15-3) | MIC (anti-bacterial activity) ([7]; strain BCA 14-1) | MIC (anti-bacterial activity) ([7]; strain BCA 14-4)
0.06 µg/mL: MIC (anti-bacterial activity) ([3]; strain MSSE 15-6) | MIC (anti-bacterial activity) ([6]; strain MRSA 15-3) | MIC (anti-bacterial activity) ([8]; strain MRSE 15-1)

O=CN(O)C[C@@H](CC1CCCC1)C(=O)N1CC2(CC2)C[C@H]1C(=O)NC1CC1 [Example 32, (S)-5-((R)-3-cyclopentyl-2-((N-hydroxyformamido)methyl)propionyl)-N-cyclopropyl-5-azaspiro[2.4]heptane-6-carboxamide]
> 32 µg/mL: MIC (anti-bacterial activity) ([10]; strain ECO+ 15-2) | MIC (anti-bacterial activity) ([10]; strain ECO+ 15-3) | MIC (anti-bacterial activity) ([10]; strain ECO− 15-2) | MIC (anti-bacterial activity) ([10]; strain ECO− 15-3) | MIC (anti-bacterial activity) ([10]; strain ECO− 15-4)
32 µg/mL: MIC (anti-bacterial activity) ([10]; strain ECO+ 15-1) | MIC (anti-bacterial activity) ([10]; strain ECO+ 15-4) | MIC (anti-bacterial activity) ([10]; strain ECO− 15-1)
≥ 30%: inhibition at 30 µM ([1]; Homo sapiens, concentration of 30 μM, Table 5, read-out: Inhibition of proliferation, Colorectal cancer HCT116)
4 µg/mL: MIC (anti-bacterial activity) ([4]; strain EFM 15-1) | MIC (anti-bacterial activity) ([4]; strain EFM 15-2) | MIC (anti-bacterial activity) ([4]; strain EFM 15-4) | MIC (anti-bacterial activity) ([4]; strain EFM 15-5) | MIC (anti-bacterial activity) ([4]; strain EFM 15-6) | MIC (anti-bacterial activity) ([7]; strain BCA 14-1) | MIC (anti-bacterial activity) ([7]; strain BCA 14-4)
46%: inhibition at 30 µM ([12]; Homo sapiens, Bel-7402, 72 h, concentration of 30 μM)
14%: inhibition at 30 µM [11] | inhibition at 30 µM ([13]; Homo sapiens, MGC-803, 72 h, concentration of 30 μM)
2 µg/mL: MIC (anti-bacterial activity) ([3]; strain MSSE 15-3) | MIC (anti-bacterial activity) ([3]; strain MSSE 15-4) | MIC (anti-bacterial activity) ([3]; strain MSSE 15-5) | MIC (anti-bacterial activity) ([3]; strain MSSE 15-6) | MIC (anti-bacterial activity) ([7]; strain BCA 14-5) | MIC (anti-bacterial activity) ([8]; strain MRSE 15-2) | MIC (anti-bacterial activity) ([9]; strain MSSA 15-3) | MIC (anti-bacterial activity) ([9]; strain MSSA 15-6)
30%: inhibition at 30 µM ([1]; Homo sapiens, concentration of 30 μM, read-out: HCT116 inhibition rate/%)
8 µg/mL: MIC (anti-bacterial activity) ([2]; strain EFA 15-1) | MIC (anti-bacterial activity) ([2]; strain EFA 15-2) | MIC (anti-bacterial activity) ([2]; strain EFA 15-3) | MIC (anti-bacterial activity) ([2]; strain EFA 15-4) | MIC (anti-bacterial activity) ([2]; strain EFA 15-5) | MIC (anti-bacterial activity) ([2]; strain EFA 15-6) | MIC (anti-bacterial activity) ([2]; strain EFA 15-9) | MIC (anti-bacterial activity) ([5]; strain SPN 16-4) | MIC (anti-bacterial activity) ([7]; strain BCA 14-6) | MIC (anti-bacterial activity) ([7]; strain BCA 14-8) | MIC (anti-bacterial activity) ([8]; strain MRSE 15-3) | MIC (anti-bacterial activity) ([8]; strain MRSE 15-7)
1 µg/mL: MIC (anti-bacterial activity) ([4]; strain EFM 15-3) | MIC (anti-bacterial activity) ([5]; strain SPN 16-2) | MIC (anti-bacterial activity) ([6]; strain MRSA 15-1) | MIC (anti-bacterial activity) ([6]; strain MRSA 15-2) | MIC (anti-bacterial activity) ([6]; strain MRSA 15-3) | MIC (anti-bacterial activity) ([6]; strain MRSA 15-4) | Anti-bacterial activity (MIC), strain BCA 14-10 [7] | MIC (anti-bacterial activity) ([7]; strain BCA 14-7) | MIC (anti-bacterial activity) ([8]; strain MRSE 15-1) | MIC (anti-bacterial activity) ([9]; strain MSSA 15-4) | MIC (anti-bacterial activity) ([9]; strain MSSA 15-5)

Reference: patent US10738028B2, “Spiro three-membered ring, spiro five-membered ring peptide deformylase inhibitor and use thereof in antibacteria and anti-tumor” (priority 2016, dated 2020)
